Source: ChEMBL document CHEMBL1201862, “PubChem BioAssay data set” (2004)
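Cultured in 96-well plates, cells were exposed to test compound for 48 hours across five concentrations. At the GI50, growth is halved.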 Activity calls are given as the source filed them. No stated cut-off is given here; in the data, active = GI50 up to about 1.1 µM and inactive = higher.

How the values were obtained:
Experiment in all cases: inhibition of tumour cell growth, NCI panel, 48 h
HCT-15 = system: HCT-15
HOP-92 = system: HOP-92
IGROV-1 = system: IGROV-1
M14 = system: M14
MDA-N = system: MDA-N
Malme-3M = system: Malme-3M
NCI-H460 = system: NCI-H460
OVCAR-3 = system: OVCAR-3
OVCAR-4 = system: OVCAR-4
OVCAR-5 = system: OVCAR-5
RXF 393 = system: RXF 393
SK-MEL-28 = system: SK-MEL-28
SK-OV-3 = system: SK-OV-3
SN12C = system: SN12C
U-251 = system: U-251
HL-60 = system: HL-60
MOLT-4 = system: MOLT-4

| SMILES | GI50 (HCT-15) [µM] | GI50 (HOP-92) | GI50 (IGROV-1) | GI50 (M14) | GI50 (MDA-N) | GI50 (Malme-3M) | GI50 (NCI-H460) | GI50 (OVCAR-3) | GI50 (OVCAR-4) | GI50 (OVCAR-5) | GI50 (RXF 393) | GI50 (SK-MEL-28) | GI50 (SK-OV-3) | GI50 (SN12C) | GI50 (U-251) | GI50 (HL-60) | GI50 (MOLT-4) |
| --- | --- | --- | --- | --- | --- | --- | --- | --- | --- | --- | --- | --- | --- | --- | --- | --- | --- |
| N=C(N)SCc1cccc(-c2nc3ccccc3c(=O)o2)c1 | > 100 | > 100 µM (inactive) | > 100 µM (inactive) | > 100 µM (inactive) | > 100 µM (inactive) | > 100 µM (inactive) | > 100 µM (inactive) | > 100 µM (inactive) | > 100 µM (inactive) | > 100 µM (inactive) | > 100 µM (inactive) | > 100 µM (inactive) | > 100 µM (inactive) | > 100 µM (inactive) | > 100 µM (inactive) | – | – |
| CCOC(=O)C12C(=O)CCN1CCc1ccccc1C2C (centres undefined) | > 100 | > 100 µM (inactive) | > 100 µM (inactive) | > 100 µM (inactive) | > 100 µM (inactive) | > 100 µM (inactive) | – | > 100 µM (inactive) | > 100 µM (inactive) | > 100 µM (inactive) | > 100 µM (inactive) | > 100 µM (inactive) | > 100 µM (inactive) | > 100 µM (inactive) | > 100 µM (inactive) | > 100 µM (inactive) | > 100 µM (inactive) |
| Clc1ccc(CN2CCCN(Cc3ccc(Cl)cc3)C2c2cc3ccccc3c3ccccc23)cc1 | 62.8 | 74 µM (inactive) | > 100 µM (inactive) | 18.7 µM (inactive) | 37.2 µM (inactive) | 18.4 µM (inactive) | – | 57.9 µM (inactive) | 55.6 µM (inactive) | 36.9 µM (inactive) | 24.8 µM (inactive) | 22.8 µM (inactive) | > 100 µM (inactive) | 67.3 µM (inactive) | 33.3 µM (inactive) | – | 5.85 µM (inactive) |
| Cc1c2n(c3ccccc13)S(=O)(=O)c1ccccc1-2 | 48.1 | 30.2 µM (inactive) | 25.3 µM (inactive) | 27.4 µM (inactive) | 34.9 µM (inactive) | 33.1 µM (inactive) | 30.5 µM (inactive) | 45.9 µM (inactive) | 17.2 µM (inactive) | 88.3 µM (inactive) | – | > 100 µM (inactive) | 14.6 µM (inactive) | – | 18.4 µM (inactive) | > 100 µM (inactive) | > 100 µM (inactive) |
| C=CCC(SC)C1=C(C)C(=O)c2ccccc21 (centres undefined) | > 10 | > 10 µM (inactive) | > 10 µM (inactive) | > 10 µM (inactive) | > 10 µM (inactive) | > 10 µM (inactive) | > 10 µM (inactive) | > 10 µM (inactive) | – | > 10 µM (inactive) | > 10 µM (inactive) | > 10 µM (inactive) | > 10 µM (inactive) | > 10 µM (inactive) | > 10 µM (inactive) | – | > 10 µM (inactive) |
| COc1ccccc1N1C(=O)CSC1c1c[nH]c2ccccc12 (centres undefined) | > 100 | > 100 µM (inactive) | > 100 µM (inactive) | > 100 µM (inactive) | > 100 µM (inactive) | – | > 100 µM (inactive) | > 100 µM (inactive) | > 100 µM (inactive) | > 100 µM (inactive) | > 100 µM (inactive) | 66.7 µM (inactive) | > 100 µM (inactive) | > 100 µM (inactive) | > 100 µM (inactive) | > 100 µM (inactive) | > 100 µM (inactive) |
| CC(C)CC(NP(=O)(O)OC1OC(C)C(O)C(O)C1O)C(=O)NC(Cc1c[nH]c2ccccc12)C(=O)O (centres undefined) | > 100 | > 100 µM (inactive) | > 100 µM (inactive) | > 100 µM (inactive) | > 100 µM (inactive) | > 100 µM (inactive) | > 100 µM (inactive) | > 100 µM (inactive) | > 100 µM (inactive) | > 100 µM (inactive) | – | > 100 µM (inactive) | > 100 µM (inactive) | > 100 µM (inactive) | > 100 µM (inactive) | – | > 100 µM (inactive) |
| CC1=NN(C(=O)CSc2nnc(SCC(=O)N3N=C(C)CC3(O)c3ccccc3)s2)C(O)(c2ccccc2)C1 (centres undefined) | 33.2 | 33.7 µM (inactive) | 25.1 µM (inactive) | 16.1 µM (inactive) | 39.6 µM (inactive) | 99.1 µM (inactive) | 27.6 µM (inactive) | 41.1 µM (inactive) | 32.9 µM (inactive) | 82.4 µM (inactive) | 24.9 µM (inactive) | > 100 µM (inactive) | > 100 µM (inactive) | 61.7 µM (inactive) | > 100 µM (inactive) | – | 32.3 µM (inactive) |
| CCN(CC)P1(=S)Oc2ccc3ccccc3c2-c2c(ccc3ccccc23)O1 | 63.4 | > 100 µM (inactive) | 89.3 µM (inactive) | > 100 µM (inactive) | 51.2 µM (inactive) | 72.8 µM (inactive) | > 100 µM (inactive) | > 100 µM (inactive) | 99.3 µM (inactive) | > 100 µM (inactive) | – | > 100 µM (inactive) | > 100 µM (inactive) | > 100 µM (inactive) | > 100 µM (inactive) | > 100 µM (inactive) | > 100 µM (inactive) |
